Measurements published in patent US8158606B2, “β-L-2′-deoxynucleosides for the treatment of resistant HBV strains and combination therapies” (priority 2002, dated 2012).

What was measured:
[1] = test system: Human DNA polymerases and mitochondrial function; test: Effect on human DNA polymerases and mitochondrial function in vitro
From the text: (§1) Human DNA polymerases and mitochondrial function were not affected by L-dC in vitro. L-dC was non-cytotoxic to human peripheral blood mononuclear cells (PBMCs), bone marrow progenitor cells and numerous cell lines of human and other non-human mammalian origin.

in vivo [2] = details: rhesus monkey, po, 10 mg/kg
Procedure: (§2) The drug was detected and concentration determined using a reverse-phase HPLC technique. The blood and urine drug level data were analyzed by a non-modeling mathematical method and AUCs derived by the linear trapezoidal rule.

in vivo [3] = details: Sprague-Dawley, rat, 10 mg/kg
Procedure: (§3) The drug was detected and the concentration determined in plasma and urine using a reverse-phase HPLC technique. The data were analyzed by a non-modeling mathematical method and the AUCs derived by the linear trapezoidal rule.

[4] = Single-dose bioavailability of L-dC in the rhesus monkey
Procedure: as §2

[5] = Single dose bioavailability of L-dC in the cynomologus monkey; assay type: in vivo, cynomolgus monkey; details: for AUC(0-t) / half-life: n=3, mean; for AUC(0-t): read-out: AUClast of L-dC; for half-life: in vivo
Procedure: The pharmacokinetics of L-dC following IV and oral administration of L-dC to cynomolgus monkeys was determined.

[6] = Single-dose bioavailability of L-dC in the woodchuck; assay type: in vivo; details: for half-life: in vivo, read-out: t1/2 of L-dC (converted); for bioavailability: po, 10 mg/kg, L-dC 10 mg/kg PO vs IV; for AUC(0-t): read-out: AUCt→24 of L-dC
Procedure: Plasma drug levels, CL, ty, and F were determined.

[7] = test system: human peripheral blood mononuclear cells (PBMCs), bone marrow progenitor cells and numerous cell lines; test: Cytotoxicity of L-dC; assay type: cell-based, human and other non-human mammalian
From the text: as §1

[8] = Single-dose bioavailability of L-dC in the rat; details: Sprague-Dawley, plasma, 10 mg/kg
Procedure: as §3

[9] = Bioavailability of the prodrugs of L-dC; details: cynomolgus monkey, plasma, po, 10 mg/kg
human plasma proteins = assay type: in vitro ADME; details: ex vivo, ultrafiltration
[10] = rhesus monkey, blood, po, 10 mg/kg
[11] = cynomolgus monkey, blood, L-dC 10 mg/kg single IV dose
[12] = cynomolgus monkey, blood, L-dC 10 mg/kg single oral dose
[13] = plasma, L-dC 10 mg/kg single IV dose, mean
[14] = plasma, L-dC 10 mg/kg single PO dose, mean

For `Nc1ccn([C@@H]2CC(O)[C@H](CO)O2)c(=O)n1` (stereo partly drawn) [L-dC, 2′-Deoxy-β-L-cytidine], the “effect on human DNA polymerases and mitochondrial function” value [1] was “not affected”, the half-life (in vivo [2]) was 3.34 h and the half-life (in vivo [3]; po) was 2.52 h. The half-life (in vivo [3]; female, iv) was 1.21 h, the “L-dC as share of drug excreted in the urine” value ([4]; L-dC 10 mg/kg oral) was ~77% and the “administered oral dose recovered in urine after 48 hours” value ([4]; L-dC 10 mg/kg oral) was 15%. For the same compound, the “administered oral dose recovered in urine within 8 hours” value ([4]; L-dC 10 mg/kg oral) was “Approximately 8.5%”, the CL renal ([4]; rhesus monkey, blood and urine, po, 10 mg/kg) was 4.55 mL/min/kg and the AUC [4, 10] was 12.2 µM·h. It also gave a Cmax [4, 10] of 3.23 µM, a Tmax [4, 10] of 0.83 h and a bioavailability [4, 10] of ~16%. For the same compound, the “L-dC as share of the dose recovered in the urine” value ([5]; L-dC 10 mg/kg IV) was 94%, the “administered dose recovered in urine within 2 hours” value ([5]; L-dC 10 mg/kg IV) was 71% and the “renal clearance as share of total L-dC clearance” value ([5]; L-dC 10 mg/kg IV) was 87%. For the same compound, the “L-dC as share of drug excreted in the urine” value ([5]; L-dC 10 mg/kg oral) was ~69%, the “administered oral dose recovered in urine after 72 hours” value ([5]; L-dC 10 mg/kg oral) was 15.5% and the “administered oral dose recovered in urine within 12 hours” value ([5]; L-dC 10 mg/kg oral) was “Approximately 8.5%”. It also gave a CL renal ([5]; cynomolgus monkey, blood and urine, L-dC 10 mg/kg single IV dose, mean, read-out: renal clearance (CLR) (converted)) of 7.67 mL/min/kg, a bioavailability ([5]; cynomolgus monkey, blood, L-dC 10 mg/kg oral vs IV, mean, read-out: oral bioavailability (F)) of 16.4% and a Tmax [5, 11] of 0 h. For the same compound, the Cmax ([5]; cynomolgus monkey, blood, L-dC 10 mg/kg single IV dose, mean, at 15 minutes post-dose) was 95.7 µM, the Vd ([5]; cynomolgus monkey, blood, L-dC 10 mg/kg single IV dose, mean, read-out: apparent volume of distribution (Vd)) was 1.22 L/kg and the clearance ([5]; cynomolgus monkey, blood, L-dC 10 mg/kg single IV dose, mean, read-out: total clearance (CL) (converted)) was 8.83 mL/min/kg. It also gave an AUC(0-t) [5, 11] of 81.1 µM·h, a Cmax [5, 12] of 3.38 µM and a Tmax ([5]; cynomolgus monkey, blood, L-dC 10 mg/kg single oral dose, mean) of 2.33 h. For the same compound, the AUC(0-t) [5, 12] was 13.7 µM·h, the half-life ([5]; cynomolgus monkey, L-dC 10 mg/kg single IV dose, read-out: t1/2 of L-dC (converted)) was 1.59 h and the half-life ([5]; cynomolgus monkey, L-dC 10 mg/kg single oral dose, read-out: terminal t1/2 of L-dC (converted)) was 2.95 h. For the same compound, the half-life ([6]; L-dC 10 mg/kg single IV dose, mean) was 2.85 h, the half-life ([6]; L-dC 10 mg/kg single PO dose, mean) was 5.22 h and the bioavailability ([6]; plasma, read-out: oral bioavailability (F), average) was 9.57%. The bioavailability ([6]; plasma, read-out: oral bioavailability, range of animals) was 5.6 to 16.9%, the Tmax ([6]; plasma, L-dC 10 mg/kg single IV dose) was 0 h and the Vd [6, 13] was 1.17 L/kg. The clearance [6, 13] was 6.5 mL/min/kg, the Cmax ([6]; plasma, L-dC 10 mg/kg single IV dose, mean, at 2 minutes post-dose) was 112 µM and the AUC(0-t) ([6]; plasma, L-dC 10 mg/kg single IV dose, n=3, t = 0.033 hours, mean) was 174 µM·h. The Cmax [6, 14] was 1.37 µM, the Tmax [6, 14] was 3 h and the AUC(0-t) ([6]; plasma, L-dC 10 mg/kg single PO dose, n=3, t = 0.25 hours, mean) was 11.3 µM·h. For the same compound, the cytotoxicity in words [7] was “non-cytotoxic”, the bioavailability ([8]; oral) was 15.4% and the AUC(0-t) ([8]; po) was 4.77 µM·h. For the same compound, the Cmax ([8]; po) was 1.5 µM, the Tmax ([8]; po) was 1 h and the AUC(0-t) ([8]; female, iv) was 30.1 µM·h. The Cmax ([8]; female, iv) was 91.1 µM, the Tmax ([8]; female, iv) was 0 h and the Vd ([8]; female, iv) was 2.53 L/kg. The clearance ([8]; female, iv) was 24 mL/min/kg, the bioavailability [9] was 16.4 ± 5% and the “binding to human plasma proteins” value (human plasma proteins) was 19.7%.
